Source: patent US20240262807A1, “COMPOUND USED AS BCR-ABL INHIBITOR” (CHIA TAI TIANQING PHARMACEUTICAL GROUP CO., LTD., priority 2021, published 2024)

Tests used:
[1] = biological target: T1, Ba/F3-BCR-ABL1-T315I-C3 cells (Homo sapiens, UniProt P00519, T315I, cells depend on it); assay: Inhibitory effect of compounds on proliferation of BCR-ABL T315I-transfected Ba/F3 cells (CCK-8); type: cell-based; conditions: 72 h with compound, CCK-8, 5% serum, read-out: IC50 (nM) Ba/F3-BCR-ABL1 T315I
T1 construct: fused on or other part: P11274 (Breakpoint cluster region protein)
Method: Ba/F3-BCR-ABL1-T315I-C3 cells in logarithmic growth phase and good cell condition were added to a centrifuge tube and centrifuged at 1000 rpm for 5 min in a low speed centrifuge. The supernatant was discarded, and 5 mL of complete medium (RPMI 1640 basic medium+10% FBS) was added using a pipette for cell resuspension. The cells were counted using a cell counter, diluted with complete medium to a cell density of 6×10^4 cells/mL, and an equivalent amount of RPMI 1640 basic medium was added to adjust the serum concentration to 5% and the cell density to 3×10^4 cells/mL for plate seeding. The cells were seeded on a 96-well plate at 100 μL/well using a multi-channel pipette and cultured in a cell incubator at 37° C. 5% CO2 and saturated humidity. After 24 h incubation, compounds were loaded using a nanoliter pipettor, 8 concentrations (1000 nM, 250 nM, 63 nM, 16 nM, 3.9 nM, 0.98 nM, 0.24 nM, 0.061 nM) were set for each compound, and 2 replicate wells were set for each concentration; cells with no compounds added were taken as a negative control, and a plating medium with no cells added was taken as a blank control. After 72 h. […] Inhibition rate (%)=(mean value of negative control group−mean value of experimental group)/(mean value of negative control group−mean value of blank group)×100%. A dose-response curve was fitted by four-parameter analysis, with the logarithm of compound concentration serving as abscissa and inhibition rate serving as ordinate, such that ICso was calculated.

K562 cells = assay: Inhibitory effect of compounds on proliferation of K562 cells (CCK-8); type: cell-based; conditions: Homo sapiens, 72 h with compound, CCK-8, 5% serum
Method: K562 cells in logarithmic growth phase and good cell condition were added to a centrifuge tube and centrifuged at 1000 rpm for 5 min in a low speed centrifuge. […] The cells were seeded on a 96-well plate at 100 µL/well using a multi-channel pipette and cultured in a cell incubator at 37° ° C. 5% CO2 and saturated humidity. […] Inhibition rate (%)=(mean value of negative control group−mean value of experimental group)/(mean value of negative control group−mean value of blank group)×100%. A dose-response curve was fitted by four-parameter analysis, with the logarithm of compound concentration serving as abscissa and inhibition rate serving as ordinate, such that IC50 was calculated.

Row | SMILES | GI50 [1] [nM] | IC50 (K562 cells) [nM]
1 | Cn1ccc(-c2cc(C(=O)Nc3ccc(OC(F)(F)Cl)cc3)cnc2N2CC[C@H](Cl)C2)cc1=O [Compound 4] | 21 | 16
2 | Cn1ccc(-c2cc(C(=O)Nc3ccc(OC(F)(F)Cl)cc3)cnc2N2CC3(COC3)C2)cc1=O [Compound 5] | 28 | 16
3 | O=C(Nc1ccc(OC(F)(F)Cl)cc1)c1cnc(N2CCOCC2)c(-c2ccn(CCO)c(=O)c2)c1 [Compound 8] | 23 | 52
4 | CCn1ccc(-c2cc(C(=O)Nc3ccc(OC(F)(F)Cl)cc3)cnc2N2CCOCC2)cc1=O [Compound 9] |  | 9.3
5 | Cn1ccc(-c2cc(C(=O)Nc3ccc(OC(F)(F)Cl)cc3)cnc2N2CC[C@@H](O)C2)cc1=O [Compound 11] | 54 | 12
6 | Cn1ccc(-c2cc(C(=O)Nc3ccc(OC(F)(F)Cl)cc3)cnc2N2CC[C@H](F)C2)cc1=O [Compound 17] | 33 | 13
7 | Cn1ccc(-c2cc(C(=O)Nc3ccc(OC(F)(F)Cl)cc3)cnc2N2CC[C@@H](Cl)C2)cc1=O [Compound 18] | 8.1 | 4.9
8 | Cn1ccc(-c2cc(C(=O)Nc3ccc(OC(F)(F)Cl)cc3)cnc2N2C3COCC2C3)cc1=O [Compound 20] | 38 | 31
9 | Cn1ccc(-c2cc(C(=O)Nc3ccc(OC(F)(F)Cl)cc3)cnc2N2C[C@H]3C[C@@H]2CO3)cc1=O [Compound 21] | 20 | 
10 | Cn1ccc(-c2cc(C(=O)Nc3ccc(OC(F)(F)Cl)cc3)cnc2N2C[C@@H]3C[C@H]2CO3)cc1=O [Compound 22] | 35 | 
11 | Cn1ccc(-c2cc(C(=O)Nc3ccc(OC(F)(F)Cl)cc3)cnc2N2CC3CC(C2)O3)cc1=O [Compound 23] | 18 | 10
12 | Cn1ccc(-c2cc(C(=O)Nc3ccc(OC(F)(F)Cl)cc3)cnc2N2CCC3(CC2)COC3)cc1=O [Compound 24] | 12 | 6.3
13 | Cn1ccc(-c2cc(C(=O)Nc3ccc(OC(F)(F)Cl)cc3)cnc2N2CC(C#N)C2)cc1=O [Compound 25] | 20 | 9
14 | Cn1ccc(-c2cc(C(=O)Nc3ccc(OC(F)(F)Cl)cc3)cnc2N2CC(C)(O)C2)cc1=O [Compound 26] | 53 | 26
15 | Cn1ccc(-c2cc(C(=O)Nc3ccc(OC(F)(F)Cl)cc3)cnc2N2C[C@H](O)[C@@H](F)C2)cc1=O [Compound 27] | 67 | 18
16 | Cn1ccc(-c2cc(C(=O)Nc3ccc(OC(F)(F)Cl)cc3)cnc2N2CC3CC3C2)cc1=O (stereo not shown) [Compound 28] | 11 | 6.5
17 | Cn1ccc(-c2cc(C(=O)Nc3ccc(OC(F)(F)Cl)cc3)cnc2N2CCCO2)cc1=O [Compound 29] | 12 | 6.8
18 | Cn1ccc(-c2cc(C(=O)Nc3ccc(OC(F)(F)Cl)cc3)cnc2N2CC[C@H](C#N)C2)cc1=O [Compound 30] | 18 | 10
19 | Cn1ccc(-c2cc(C(=O)Nc3ccc(OC(F)(F)Cl)cc3)cnc2N2CC[C@@H](C#N)C2)cc1=O [Compound 31] | 21 | 12
20 | Cn1cc(Cl)c(-c2cc(C(=O)Nc3ccc(OC(F)(F)Cl)cc3)cnc2N2CCOCC2)cc1=O [Compound 33] | 9.1 | 4.9
21 | Cn1ccc(-c2cc(C(=O)Nc3ccc(OC(F)(F)Cl)cc3)cnc2N2CC3CCC(C2)O3)cc1=O [Compound 34] | 7.8 | 20
22 | O=C(Nc1ccc(OC(F)(F)Cl)cc1)c1cnc(N2C[C@H]3C[C@@H]2CO3)c(-c2cnn3c2COCC3)c1 [Compound 38] | 5.7 | 
23 | O=C(Nc1ccc(OC(F)(F)Cl)cc1)c1cnc(N2C[C@@H]3C[C@H]2CO3)c(-c2cnn3c2COCC3)c1 [Compound 40] | 7.4 | 
24 | Cn1cnc(-c2cc(C(=O)Nc3ccc(OC(F)(F)Cl)cc3)cnc2N2CC(O)C2)cc1=O [Compound 48] |  | 13
25 | Cn1cnc(-c2cc(C(=O)Nc3ccc(OC(F)(F)Cl)cc3)cnc2N2C3CCC2COC3)cc1=O [Compound 49] |  | 10

Row | SMILES | GI50 [1] [nM] | IC50 (K562 cells) [nM]
26 | Cn1cnc(-c2cc(C(=O)Nc3ccc(OC(F)(F)Cl)cc3)cnc2N2CC3CCC(C2)O3)cc1=O [Compound 50] |  | 10
27 | Cn1cnc(-c2cc(C(=O)Nc3ccc(OC(F)(F)Cl)cc3)cnc2N2C[C@H]3C[C@@H]2CO3)cc1=O [Compound 51] |  | 13
28 | Cn1cnc(-c2cc(C(=O)Nc3ccc(OC(F)(F)Cl)cc3)cnc2N2CC3CC(C2)O3)cc1=O [Compound 52] |  | 6.1
29 | COCCNc1ncc(C(=O)Nc2ccc(OC(F)(F)Cl)cc2)cc1-c1cc(=O)n(C)cn1 [Compound 55] |  | 26
30 | C[C@H]1COCCN1c1ncc(C(=O)Nc2ccc(OC(F)(F)Cl)cc2)cc1-c1cc(=O)n(C)cn1 [Compound 57] |  | 59
31 | CNc1ncc(C(=O)Nc2ccc(OC(F)(F)Cl)cc2)cc1-c1cc(=O)n(C)cn1 [Compound 62] |  | 18
32 | Cn1cnc(-c2cc(C(=O)Nc3ccc(OC(F)(F)Cl)cc3)cnc2-n2ccnc2)cc1=O [Compound 66] |  | 31
33 | Cn1cnc(-c2cc(C(=O)Nc3ccc(OC(F)(F)Cl)cc3)cnc2-c2ccn[nH]2)cc1=O [Compound 69] |  | 47
34 | COCCOc1ncc(C(=O)Nc2ccc(OC(F)(F)Cl)cc2)cc1-c1cc(=O)n(C)cn1 [Compound 70] |  | 95
35 | COc1ncc(C(=O)Nc2ccc(OC(F)(F)Cl)cc2)cc1-c1cc(=O)n(C)cn1 [Compound 71] |  | 43
36 | Cn1nccc1-c1ncc(C(=O)Nc2ccc(OC(F)(F)Cl)cc2)cc1-c1cc(=O)n(C)cn1 [Compound 73] |  | 14
37 | Cn1cnc(-c2cc(C(=O)Nc3ccc(OC(F)(F)Cl)cc3)cnc2-n2cccn2)cc1=O [Compound 77] |  | 13
38 | CN(C)c1ncc(C(=O)Nc2ccc(OC(F)(F)Cl)cc2)cc1-c1cc(=O)n(CC2CCOCC2)cn1 [Compound 78] |  | 46
39 | Cn1cnc(-c2cc(C(=O)Nc3ccc(OC(F)(F)Cl)cc3)cnc2N2C[C@@H](F)[C@H](F)C2)cc1=O [Compound 79] |  | 17
40 | Cn1cnc(-c2cc(C(=O)Nc3ccc(OC(F)(F)Cl)cc3)cnc2N2CCCO2)cc1=O [Compound 80] |  | 14
41 | CON(C)c1ncc(C(=O)Nc2ccc(OC(F)(F)Cl)cc2)cc1-c1cc(=O)n(C)cn1 [Compound 81] |  | 10
42 | Cn1cc(-c2cc(C(=O)Nc3ccc(OC(F)(F)Cl)cc3)cnc2N2CCOCC2)ncc1=O [Compound 82] |  | 57
43 | Cn1cc(-c2cc(C(=O)Nc3ccc(OC(F)(F)Cl)cc3)cnc2N2CCOCC2)ccc1=O [Compound 84] |  | 45
44 | Cn1ncc(-c2cc(C(=O)Nc3ccc(OC(F)(F)Cl)cc3)cnc2N2C[C@H]3C[C@@H]2CO3)cc1=O [Compound 88] |  | 10
45 | O=C(Nc1ccc(OC(F)(F)Cl)cc1)c1cnc(N2C3COCC2C3)c(-c2cnn3c2COCC3)c1 [Compound 92] |  | 15
46 | C[C@@H]1COCCN1c1ncc(C(=O)Nc2ccc(OC(F)(F)Cl)cc2)cc1-c1cnn2c1COCC2 [Compound 93] |  | 12
47 | CN1Cc2nc(-c3cc(C(=O)Nc4ccc(OC(F)(F)Cl)cc4)cnc3N3CC[C@@H](O)C3)[nH]c2C1=O [Compound 95] |  | 39
48 | CN1CCc2oc(-c3cc(C(=O)Nc4ccc(OC(F)(F)Cl)cc4)cnc3N3CC[C@@H](O)C3)cc2C1=O [Compound 101] |  | 10
49 | O=C(Nc1ccc(OC(F)(F)Cl)cc1)c1cnc(N2CC[C@@H](O)C2)c(-c2cc3nccn3[nH]2)c1 [Compound 102] | 76 | 
